As usually defined, the IC50 is the midpoint of a concentration-inhibition curve.

Each structure is given as a SMILES string.

The source of these data is patent US10363257B2 (ZENITH EPIGENETICS LTD., priority 2013, dated 2019).

Assay [1] concerns the target T1, Brd4 bromodomain 1 (BRD4(1)) (Homo sapiens, UniProt O60885).
T1 construct: made in house; host or cells: E. coli BL21(DE3)
Briefly: Inhibition of tetra-acetylated histone H4 binding to Brd4 bromodomain 1 (TR-FRET). As to conditions: tetra-acetylated histone H4 peptide, first bromodomain of Brd4. Here is the method: Proteins were cloned and overexpressed with a N-terminal 6× His tag, then purified by nickel affinity followed by size exclusion chromatography. Briefly, E.coli BL21(DE3) cells were transformed with a recombinant expression vector encoding N-terminally Nickel affinity tagged bromodomains from Brd2, Brd3, Brd4. Cell cultures were incubated at 37° C. with shaking to the appropriate density and induced overnight with IPTG. The supernatant of lysed cells was loaded onto Ni-IDA column for purification. Eluted protein was pooled, concentrated and further purified by size exclusion chromatography. Fractions representing monomeric protein were pooled, concentrated, aliquoted, and frozen at −80° C. for use in subsequent experiments.
Binding of tetra-acetylated histone H4 and BET bromodomains was confirmed by a Time Resolved Fluorescence Resonance Energy Transfer (TR-FRET) method. N-terminally His-tagged bromodomains (200 nM) and biotinylated tetra-acetylated histone H4 peptide (25-50 nM, Millipore) were incubated in the presence of Europium Cryptate-labeled streptavidin (Cisbio Cat. #610SAKLB) and XL665-labeled monoclonal anti-His antibody (Cisbio Cat. #61HISXLB) in a white 96 well microtiter plate (Greiner). For inhibition assays, serially diluted test compound was added to these reactions in a 0.2% final concentration of DMSO. Final buffer concentrations were 30 mM HEPES pH 7.4, 30 mM NaCl, 0.3 mM CHAPS, 20 mM phosphate pH 7.0, 320 mM KF, 0.08% BSA). After a 2-h incubation at room temperature, the fluorescence by FRET was measured at 665 and 620 nm by a SynergyH4 plate reader (Biotek). The binding inhibitory activity was shown by a decrease in 665 nm fluorescence relative to 620 nm. IC50 values were determined from a dose response curve.
(In general: TR-FRET usually uses a lanthanide donor and a delayed reading to cut background.)

In another assay the test system is c-myc. Briefly: Inhibition of c-myc expression (mRNA, real-time PCR) in MV4-11 cells. As to conditions: Human AML MV4-11 cells, 3 h, cMYC mRNA. It counts as cell-based. Here is the method: MV4-11 cells (CRL-9591) were plated at a density of 2.5×10^4 cells per well in 96 well U-bottom plates and treated with increasing concentrations of test compound or DMSO (0.1%) in IMDM media containing 10% FBS and penicillin/streptomycin, and incubated for 3 h at 37° C. Triplicate wells were used for each concentration. Cells were pelleted by centrifugation and harvested using the mRNA Catcher PLUS kit according to manufacturer's instructions. The eluted mRNA isolated was then used in a one-step quantitative real-time PCR reaction, using components of the RNA UltraSense™ One-Step Kit (Life Technologies) together with Applied Biosystems TaqMan® primer-probes for cMYC and Cyclophilin. Real-time PCR plates were run on a VIaTM7 real time PCR machine (Applied Biosystems), data was analyzed, normalizing the Ct values for cMYC to an internal control, prior to determining the fold expression of each sample, relative to the control.

The next assay has as its system human AML MV-4-11 cells. Briefly: Inhibition of cell proliferation in MV4-11 cells (CellTiter Aqueous One). Format: cell-based. Particulars: MV4-11, 72 h. The method, then: MV4-11 cells: 96-well plates were seeded with 5×10^4 cells per well of exponentially growing human AML MV-4-11 (CRL-9591) cells and immediately treated with two-fold dilutions of test compounds, ranging from 30 μM to 0.2 μM. Triplicate wells were used for each concentration, as well as a media only and three DMSO control wells. The cells and compounds were incubated at 37° C., 5% CO2 for 72 h before adding 20 μL of the CellTiter Aqueous One Solution (Promega) to each well and incubating at 37° C., 5% CO2 for an additional 3-4 h. The absorbance was taken at 490 nm in a spectrophotometer and the percentage of proliferation relative to DMSO-treated cells was calculated after correction from the blank well. IC50 were calculated using the GraphPad Prism software.

As to `Cc1noc(C)c1-c1cc(N2CCC2=O)c2nc(C)n(Cc3ccccc3)c2c1` [compound 183, 1-(1-benzyl-6-(3,5-dimethylisoxazol-4-yl)-2-methyl-1H-benzo[d]imidazol-4-yl)azetidin-2-one], the results for the IC50 (in assay [1]; in the assay with c-myc; with human AML MV-4-11 cells) were at most 300 nM, 300 to 3000 nM and 3000 to 30000 nM, respectively.

As for `Cc1noc(C)c1-c1cnc2[nH]c(=O)n(CC3CCC3)c2c1` [compound 203, 1-(cyclobutylmethyl)-6-(3,5-dimethylisoxazol-4-yl)-1H-imidazo[4,5-b]pyridin-2(3H)-one], the IC50 was at most 300 nM in assay [1], 3000 to 30000 nM in the assay on c-myc and 3000 to 30000 nM in the assay with human AML MV-4-11 cells.

On to `Cc1noc(C)c1-c1cc(N2CCOCC2)c2nc(C)n(Cc3ccccc3)c2c1` [compound 182, 4-(1-benzyl-6-(3,5-dimethylisoxazol-4-yl)-2-methyl-1H-benzo[d]imidazol-4-yl)morpholine], for which the IC50 in assay [1] was at most 300 nM; in the assay on c-myc, 300 to 3000 nM; in the assay with human AML MV-4-11 cells, 300 to 3000 nM.

For the compound `Cc1noc(C)c1-c1cnc2nc(NCCN(C)C)n(Cc3ccccc3)c2c1` [compound 212, N1-(1-benzyl-6-(3,5-dimethylisoxazol-4-yl)-1H-imidazo[4,5-b]pyridin-2-yl)-N2,N2-dimethylethane-1,2-diamine], the IC50 was at most 300 nM in assay [1], 300 to 3000 nM with c-myc and 300 to 3000 nM in the assay on human AML MV-4-11 cells.

`COCCNc1nc2c(N)cc(-c3c(C)noc3C)cc2n1Cc1ccccc1` [compound 139, 1-benzyl-6-(3,5-dimethylisoxazol-4-yl)-N2-(2-methoxyethyl)-1H-benzo[d]imidazole-2,4-diamine]: the IC50 (in assay [1]; in the assay with c-myc; in the assay with human AML MV-4-11 cells) was at most 300 nM throughout.

`Cc1noc(C)c1-c1cnc2nc(N3CCN(C)CC3)n(Cc3ccccc3)c2c1` [compound 165, 4-(1-benzyl-2-(4-methylpiperazin-1-yl)-1H-imidazo[4,5-b]pyridin-6-yl)-3,5-dimethylisoxazole]: the IC50 in assay [1] was at most 300 nM; with c-myc it was 300 to 3000 nM; with human AML MV-4-11 cells, 300 to 3000 nM.

Take `Cc1noc(C)c1-c1cnc2[nH]c(=O)n([C@@H](C)c3ccccc3)c2c1` [compound 219, (S)-6-(3,5-dimethylisoxazol-4-yl)-1-(1-phenylethyl)-1H-imidazo[4,5-b]pyridin-2(3H)-one]: the IC50 (in assay [1]; in the assay with c-myc; with human AML MV-4-11 cells) was 300 to 3000 nM throughout.

Consider `Cc1oncc1-c1cc(N)c2nc(C)n(Cc3ccccc3)c2c1` [compound 201, 1-benzyl-2-methyl-6-(5-methylisoxazol-4-yl)-1H-benzo[d]imidazol-4-amine], for which the IC50 in assay [1] is at most 300 nM; in the assay on c-myc, 300 to 3000 nM; with human AML MV-4-11 cells, 300 to 3000 nM.

For `Cc1noc(C)c1-c1cnc2[nH]c(=O)n(CC3CCCC3)c2c1` [compound 202, 1-(cyclopentylmethyl)-6-(3,5-dimethylisoxazol-4-yl)-1H-imidazo[4,5-b]pyridin-2(3H)-one], the IC50 in assay [1] was at most 300 nM; with c-myc it was 300 to 3000 nM; in the assay with human AML MV-4-11 cells, 300 to 3000 nM.

Regarding `COCCNc1nc2ncc(-c3c(C)noc3C)cc2n1Cc1ccccc1` [compound 167, 1-benzyl-6-(3,5-dimethylisoxazol-4-yl)-N-(2-methoxyethyl)-1H-imidazo[4,5-b]pyridin-2-amine], the IC50 (in assay [1]; in the assay with c-myc; with human AML MV-4-11 cells) was at most 300 nM throughout.

For `Cc1noc(C)c1-c1cnc2nc(NCc3ccccn3)n(Cc3ccccc3)c2c1` [compound 194, 1-benzyl-6-(3,5-dimethylisoxazol-4-yl)-N-(pyridin-2-ylmethyl)-1H-imidazo[4,5-b]pyridin-2-amine], the IC50 (in assay [1]; with c-myc; in the assay on human AML MV-4-11 cells) was at most 300 nM each time.

As for `Cc1noc(C)c1-c1cc([N+](=O)[O-])c2[nH]c(=O)n(CC3CC3)c2c1` [compound 145, 1-(cyclopropylmethyl)-6-(3,5-dimethylisoxazol-4-yl)-4-nitro-1H-benzo[d]imidazol-2(3H)-one], the IC50 in assay [1] was at most 300 nM; in the assay with c-myc it was 3000 to 30000 nM; in the assay with human AML MV-4-11 cells, 3000 to 30000 nM.

Take `Cc1noc(C)c1-c1cnc2nc(NC3CCOCC3)n(Cc3ccccc3)c2c1` [compound 170, 1-benzyl-6-(3,5-dimethylisoxazol-4-yl)-N-(tetrahydro-2H-pyran-4-yl)-1H-imidazo[4,5-b]pyridin-2-amine]: the IC50 (in assay [1]; with c-myc; in the assay on human AML MV-4-11 cells) was at most 300 nM throughout.

Regarding `Cc1noc(C)c1-c1cnc2[nH]c(=O)n(Cc3ccc(Cl)s3)c2c1` [compound 124, 1-((5-chlorothiophen-2-yl)methyl)-6-(3,5-dimethylisoxazol-4-yl)-1H-imidazo[4,5-b]pyridin-2(3H)-one], the figures for the half-inhibitory concentration (IC50) (in assay [1]; in the assay with c-myc; with human AML MV-4-11 cells) were at most 300 nM, 300 to 3000 nM and 300 to 3000 nM, respectively.

`CCOc1nc2c(NC(C)=O)cc(-c3c(C)noc3C)cc2n1Cc1ccccc1` [compound 120, N-(1-benzyl-6-(3,5-dimethylisoxazol-4-yl)-2-ethoxy-1H-benzo[d]imidazol-4-yl)acetamide]: the IC50 in assay [1] is at most 300 nM; in the assay on c-myc, 300 to 3000 nM; in the assay with human AML MV-4-11 cells, 300 to 3000 nM.

On to `Cn1nccc1-c1cc(N)c2c(c1)n(Cc1ccccc1)c(=O)n2C` [compound 199, 4-amino-1-benzyl-3-methyl-6-(1-methyl-1H-pyrazol-5-yl)-1H-benzo[d]imidazol-2(3H)-one], for which the IC50 was at most 300 nM in assay [1], 300 to 3000 nM in the assay with c-myc and 300 to 3000 nM in the assay on human AML MV-4-11 cells.

Consider `Cc1noc(C)c1-c1cc([N+](=O)[O-])c2nc(C)n([C@@H](C)c3ccccc3)c2c1` [compound 125, (S)-3,5-dimethyl-4-(2-methyl-4-nitro-1-(1-phenylethyl)-1H-benzo[d]imidazol-6-yl)isoxazole], for which the results for the IC50 (in assay [1]; in the assay with c-myc; in the assay with human AML MV-4-11 cells) were at most 300 nM, at most 300 nM and 300 to 3000 nM, respectively.

Turning to `Cc1noc(C)c1-c1cc(N2CC(O)C2)c2nc(C)n(Cc3ccccc3)c2c1` [compound 197, 1-(1-benzyl-6-(3,5-dimethylisoxazol-4-yl)-2-methyl-1H-benzo[d]imidazol-4-yl)azetidin-3-ol], the IC50 (in assay [1]; with c-myc; in the assay on human AML MV-4-11 cells) was at most 300 nM throughout.

With `Cc1noc(C)c1-c1cc([N+](=O)[O-])c2[nH]c(=O)n([C@@H](C)c3ccccc3)c2c1` [compound 172, (S)-6-(3,5-dimethylisoxazol-4-yl)-4-nitro-1-(1-phenylethyl)-1H-benzo[d]imidazol-2(3H)-one], the IC50 in assay [1] is at most 300 nM; with c-myc it was at most 300 nM; with human AML MV-4-11 cells it was 300 to 3000 nM.

Turning to `Cc1noc(C)c1-c1cnc2nc(NCc3cccnc3)n(Cc3ccccc3)c2c1` [compound 185, 1-benzyl-6-(3,5-dimethylisoxazol-4-yl)-N-(pyridin-3-ylmethyl)-1H-imidazo[4,5-b]pyridin-2-amine], the IC50 (in assay [1]; with c-myc; in the assay with human AML MV-4-11 cells) was at most 300 nM throughout.

`Cc1noc(C)c1-c1cnc2nc(NCc3ccncc3)n(Cc3ccccc3)c2c1` [compound 169, 1-benzyl-6-(3,5-dimethylisoxazol-4-yl)-N-(pyridin-4-ylmethyl)-1H-imidazo[4,5-b]pyridin-2-amine]: the IC50 (in assay [1]; in the assay on c-myc; in the assay with human AML MV-4-11 cells) was at most 300 nM throughout.
